In data set [1] the test system is sweating of mouse foot (pilocarpine-stimulated). Put plainly: Mouse foot antiperspirant assay. The data set is classed as in vivo, ICR/CD-1 male albino mice. To be noted: for antiperspirant potency relative to eucatropine (in words): DCC esters, compared with parent eucatropine; for EC50: s.c. 5 μL in foot pad, pilocarpine-stimulated sweating, average EC50. Here is the method: For the dose-response determination, four or five groups of 10 ICR/CD-1 male albino mice weighing approximately 20 gm were used. The animals were anaesthetized with 0.20 mL of a 250 mg/mL solution of ethyl carbamate injected intraperitoneally. Anticholinergic test solutions using 0.9% aqueous sodium chloride were injected subcutaneously under the plantar foot pads of the right hind feet of 10 mice per concentration. The 26 gauge, 2 in. needle of a Hamilton 5 μL syringe was inserted at the rear of the plantar surface and threaded forward. The dose, 5 μL, was delivered subcutaneously near the interdigital foot pads. Subsequently, both hind feet were coated with a 1:1 suspension of soluble starch in 2% ethanolic iodine-castor oil.
At 5 minutes after test solution injection, sweating was stimulated by injecting each animal intraperitoneally with 0.20 mL of 1 mg/mL pilocarpine.HCl in 0.9% aqueous sodium chloride. The appearance of blue-black spots within five minutes after stimulation by pilocarpine was the criterion for sweating. The criterion for the animals responding to the anticholinergic was absence of sweating on two or more tubercles of the treated foot. A 7X magnifying glass was used to enlarge the foot for evaluation.
As many concentrations were tested as needed to obtain two points with more than 50% but less than 100% of the animals responding and two points with less than 50% but more than 0% of the animals responding.
For some esters it was necessary to alter the concentration interval to obtain the appropriate spread of responses in a minimum of trials. […] Each compound was run at least twice. The average EC50 was used for comparison with other anticholinergics.

Data set [2] relates to pupil light reflex of rabbit eye. Put plainly: Rabbit abolition of light reflex assay (RALR), mydriasis. The source says:
In order to determine the potential for mydriasis produced by the anticholinergic antiperspirant compositions of our invention, the rabbit abolition of light reflex assay was employed. In this assay, solutions of test compounds are instilled in the eyes of rabbits and response to light stimulus followed as a function of time.
The test animals used were female, New Zealand albino rabbits which were 12 to 14 weeks old when first used for testing. A test group consisted of fifteen animals and could be used 8 to 10 weeks before the rabbits became too large to handle.
Prior to the first use of a rabbit group, a determination of the responsiveness of each pupil to a light stimulus was determined. Under room illumination provided by fluorescent tubes, the bilateral symmetry of the pupil light reflex was ascertained by directing a beam of light from a penlight-type of flashlight into each pupil. If proper response was present, the animals were subsequently used.
The mydriatic response to an anticholinergic was determined in the following manner. The animals were held in wooden restrainer boxes during the test. The distance between the mid-sagittal plane of one animal and that of the immediately adjacent animal was 11 inches. Into one conjunctival sac of each animal was installed 0.1 mL of a given concentration of the compound under test in 0.9% sodium chloride. […] Thus, for eucatropine derivatives, solutions were prepared to correspond to one percent eucatropine.HCl. After installation of the solution, the lids of the treated eye were held closed for one minute to prevent the loss of the test dose. After this time the lids were held open by gentle finger pressure, and the cornea and conjunctival sac irrigated with one mL of 0.9% aqueous sodium chloride applied in drops from a 10 mL syringe. The procedure was repeated in the other eye using 0.1 mL 0.9% saline as a control. Each rabbit was treated at two to three minutes following the preceding rabbit.
Observation of the rabbit eye pupil size was made at 30, 60 and 120 minutes after treatment by directing a penlight beam into each pupil. The response of both pupils to light was observed. Any degree of contraction of the pupil of the treated eye which was obviously less than that of the untreated eye was recorded as incomplete (partial) inhibition of the reflex. Failure of the pupil of the treated eye to contract in response to light was recorded as complete inhibition of the reflex. The responses of each rabbit were recorded. Both partial and complete inhibition were recorded as inhibited. The animals were not used again for at least 72 hours and the same eye was not used for treatment by test solutions in successive experiments.

Where [3] appears, read: esters synthesized by DCC method.
[4] abbreviates: esters synthesized by DCC method, fraction of animals with inhibition at 60 min, 1% solutions based on eucatropine.
Where [5] appears, read: esters synthesized via acid chloride.
[6] abbreviates: esters synthesized via acid chloride, fraction of animals with inhibition at 60 min, 1% solutions based on eucatropine.

Where “and” joins values, the source holds several entries; their conditions need not be identical. Identical values can stand only once.

The values that follow come from patent US4720494A, “Anticholinergic eucatropine esters and antiperspirant use thereof” (priority 1984, dated 1988).

Regarding `CC1CC(OC(=O)C(OC(=O)c2cnccn2)c2ccccc2)CC(C)(C)N1C.Cl` (centres unmarked), the “antiperspirant potency relative to eucatropine (in words)” value in data set [1] is “a reduction in EC50 over eucatropine”. In data set [1] (setting [3]), the EC50 – broadly, the concentration at which the effect is half-maximal – is 11 mM. Also, in data set [2] (rabbit, in vivo), the “RALR (60 min.)” value is listed as 0.80 and the “mydriasis in the rabbit eye (in words)” value is “reduced mydriasis”.

Turning to `CC1CC(OC(=O)C(OC(=O)c2cnc3ccccc3c2)c2ccccc2)CC(C)(C)N1C.Cl` (centres unmarked), the “antiperspirant potency relative to eucatropine (in words)” value in data set [1] is given as “a reduction in EC50 over eucatropine”. The molecule also returned an EC50 in data set [1] (setting [3]) of 10 mM. Also, the “mydriasis in the rabbit eye (in words)” value in data set [2] (compared with eucatropine) is on record as “reduced mydriasis”. Besides, the “RALR (60 min.)” value in data set [2] (setting [4]) came to 0.73.

Regarding `CC1CC(OC(=O)C(OC(=O)c2ccc(N(C)C)cc2)c2ccccc2)CC(C)(C)N1C.Cl` (centres unmarked), in data set [1] (setting [3]), a half-maximal effect (EC50) was put at 25 mM. The “RALR (60 min.)” value in data set [2] (setting [4]) came out at 0.27.

Turning to `CC1CC(OC(=O)C(OC(=O)c2ccnc3ccccc23)c2ccccc2)CC(C)(C)N1C.Cl` (centres unmarked), the “antiperspirant potency relative to eucatropine (in words)” value in data set [1] is given as “a reduction in EC50 over eucatropine”. In data set [2] (compared with eucatropine), the “mydriasis in the rabbit eye (in words)” value is “reduced mydriasis”. Further, the “RALR (60 min.)” value in data set [2] (setting [4]) was 0.60.

In turn, `CC1CC(OC(=O)C(OC(=O)C2CCC2)c2ccccc2)CC(C)(C)N1C.Cl` (centres unmarked) yielded a concentration for a half-maximal effect (EC50) in data set [1] (setting [3]) of 18 mM. Besides, in data set [2] (rabbit, in vivo), the “RALR (60 min.)” value came to 1.00.

Regarding `CC1CC(OC(=O)C(OC(=O)C2CCCCC2)c2ccccc2)CC(C)(C)N1C.Cl` (centres unmarked), the concentration for a half-maximal effect (EC50) was 41 mM in data set [1] (setting [3]) and 43 mM in data set [1] (setting [5]).

Consider `CC1CC(OC(=O)C(OC(=O)CC2CCCCC2)c2ccccc2)CC(C)(C)N1C.Cl` (centres unmarked), for which the EC50 in data set [1] (setting [3]) was determined as 87 mM. Further, the “RALR (60 min.)” value in data set [2] (rabbit, in vivo) is given as 0.67.

`CC1CC(OC(=O)C(OC(=O)CC2CCCC2)c2ccccc2)CC(C)(C)N1C.Cl` (centres unmarked) returned an EC50 in data set [1] (setting [3]) of 67 mM. Further, in data set [2] (rabbit, in vivo), the “RALR (60 min.)” value is reported as 1.00.

With `CC1CC(OC(=O)C(OC(=O)C2CC2)c2ccccc2)CC(C)(C)N1C.Cl` (centres unmarked), the EC50 is 4.7 mM and 4.8 mM in data set [1] (setting [3]); 36 mM in data set [1] (setting [5]). In addition, the “RALR (60 min.)” value in data set [2] (rabbit, in vivo) is listed as 1.00.

With `CC1CC(OC(=O)C(OC(=O)c2ccncc2)c2ccccc2)CC(C)(C)N1C.Cl` (centres unmarked), the “antiperspirant potency relative to eucatropine (in words)” value in data set [1] is “only a slight decrease in antiperspirant potency relative to eucatropine”. The same molecule returned a concentration giving a half-maximal response (EC50) in data set [1] (setting [3]) of 5.2 mM. In addition, in data set [2] (rabbit, in vivo), the “RALR (60 min.)” value came out at 0.00 and the “mydriasis in the rabbit eye (in words)” value is “no mydriasis”.

In the case of `CC1CC(OC(=O)C(OC(=O)c2ccccn2)c2ccccc2)CC(C)(C)N1C.Cl` (centres unmarked), in data set [1], the “antiperspirant potency relative to eucatropine (in words)” value is “only a slight decrease in antiperspirant potency relative to eucatropine”. The molecule also yielded a concentration for a half-maximal effect (EC50) in data set [1] (setting [3]) of 2 mM. Besides, the “RALR (60 min.)” value in data set [2] (rabbit, in vivo) was found to be 0.40.

As to `CC1CC(OC(=O)C(OC(=O)C(Cl)c2ccccc2)c2ccccc2)CC(C)(C)N1C.Cl` (centres unmarked), the “antiperspirant potency relative to eucatropine (in words)” value in data set [1] is on record as “equalled or nearly equalled that of the parent eucatropine”. Moreover, in data set [1] (setting [3]), the 50% effective concentration (EC50) was 1.4 mM.

With `COc1ccc(C(=O)OC(C(=O)OC2CC(C)N(C)C(C)(C)C2)c2ccccc2)cc1.Cl` (centres unmarked), in data set [1] (setting [3]), it took 16 mM to reach a half-maximal effect (EC50).

In data set [1] (setting [3]), `O=C(O)C1CCCC1` [Cyclopentanecarboxylate] returned an EC50 of 78 mM. For the same molecule, the “RALR (60 min.)” value in data set [2] (rabbit, in vivo) is reported as 0.67.

Turning to `CC1CC(OC(=O)C(O)c2ccccc2)CC(C)(C)N1C` (centres unmarked) [H, eucatropine], in data set [1] (Mus musculus, sc, parent eucatropine (ester group H)), the EC50 amounted to 7.2 mM. For the same molecule, in data set [2] (rabbit, in vivo), the “RALR (60 min.)” value worked out at 1.00 and the “incomplete response (light reflex) in rabbits at 60 minutes” value is “eight out of eight”.

On to `CC(C)C(=O)O` [Isobutyrate], for which the EC50 in data set [1] (setting [3]) came to 1.6 mM. The “RALR (60 min.)” value in data set [2] (rabbit, in vivo) is recorded as 0.88.

Take `CC1CC(OC(=O)C(OC(=O)c2cccnc2)c2ccccc2)CC(C)(C)N1C.Cl` (centres unmarked) [Nicotinate]: the “antiperspirant potency relative to eucatropine (in words)” value in data set [1] was “only a slight decrease in antiperspirant potency relative to eucatropine”. In data set [1] (setting [3]), this molecule gave a half-maximal effective concentration (EC50) of 6.5 mM. Also, in data set [2] (setting [4]), the “RALR (60 min.)” value was 0.60.

As to `CCCCCCCC(=O)OC(C(=O)OC1CC(C)N(C)C(C)(C)C1)c1ccccc1.Cl` (centres unmarked) [Octanoate], the EC50 in data set [1] (setting [3]) worked out at 11 mM; in data set [1] (setting [5]), 9.6 mM. The “RALR (60 min.)” value in data set [2] (setting [4]) worked out at 0.93; in data set [2] (setting [6]) it was 0.50.

`Cc1ccc(C(=O)OC(C(=O)OC2CC(C)N(C)C(C)(C)C2)c2ccccc2)cc1.Cl` (centres unmarked) [p-Toluate] registered an EC50 in data set [1] (setting [3]) of 84 mM.

Take Benzoate: the “antiperspirant potency relative to eucatropine (in words)” value in data set [1] is given as “more potent than eucatropine”. Further, the concentration for a half-maximal effect (EC50) in data set [1] (setting [3]) stood at 0.3 mM; in data set [1] (setting [5]), 25 mM. Moreover, the “RALR (60 min.)” value in data set [2] (setting [4]) is 0.88 and 0.87; in data set [2] (setting [6]), 0.20.

For the molecule Phenylacetate, the “antiperspirant potency relative to eucatropine (in words)” value in data set [1] was “equalled or nearly equalled that of the parent eucatropine”. The values for the EC50 in data set [1] (setting [3]) and in data set [1] (setting [5]) were 5.3 mM and 78 mM, respectively. Besides, the “RALR (60 min.)” value in data set [2] (setting [4]) amounted to 1.00; in data set [2] (setting [6]), 0.47.
